Experimental data from patent US6395526B1, “DNA polymerase” (Takara Shuzo Co., Ltd., priority 1995, dated 2002).
Where a chain is given by its changes, count along the chain named.

T1: Pfu DNA polymerase (Pyrococcus furiosus, UniProt P61875)
T1 construct: purchased Stratagene
T1 sequence (P61875 1-775): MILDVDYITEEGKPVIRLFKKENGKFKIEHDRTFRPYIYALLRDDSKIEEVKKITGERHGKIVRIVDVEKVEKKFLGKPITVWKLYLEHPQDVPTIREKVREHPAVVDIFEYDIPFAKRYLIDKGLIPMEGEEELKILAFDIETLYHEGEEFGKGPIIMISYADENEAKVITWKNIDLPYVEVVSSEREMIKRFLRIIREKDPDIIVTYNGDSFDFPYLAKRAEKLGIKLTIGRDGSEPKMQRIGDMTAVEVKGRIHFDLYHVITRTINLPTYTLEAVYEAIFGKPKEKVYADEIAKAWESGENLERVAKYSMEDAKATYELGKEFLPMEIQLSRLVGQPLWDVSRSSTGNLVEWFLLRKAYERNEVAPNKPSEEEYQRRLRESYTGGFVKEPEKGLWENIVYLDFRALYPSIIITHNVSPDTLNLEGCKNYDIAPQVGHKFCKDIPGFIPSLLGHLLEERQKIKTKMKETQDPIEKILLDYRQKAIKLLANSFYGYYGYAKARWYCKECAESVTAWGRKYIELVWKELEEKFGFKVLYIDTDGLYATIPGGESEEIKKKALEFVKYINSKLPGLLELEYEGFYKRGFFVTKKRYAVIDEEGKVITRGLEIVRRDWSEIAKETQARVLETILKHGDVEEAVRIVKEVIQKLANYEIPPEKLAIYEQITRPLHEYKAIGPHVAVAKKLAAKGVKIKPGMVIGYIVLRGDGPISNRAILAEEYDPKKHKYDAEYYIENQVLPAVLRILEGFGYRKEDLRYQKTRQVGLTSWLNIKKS

T2: DNA polymerase of the present invention (Pyrococcus furiosus, UniProt P81409)
T2 construct: made in house; host or cells: Escherichia coli JM109 carrying pFU1001 (genomic XbaI-XbaI fragment in pTV118N)
T2 sequence (P81409 1-1263): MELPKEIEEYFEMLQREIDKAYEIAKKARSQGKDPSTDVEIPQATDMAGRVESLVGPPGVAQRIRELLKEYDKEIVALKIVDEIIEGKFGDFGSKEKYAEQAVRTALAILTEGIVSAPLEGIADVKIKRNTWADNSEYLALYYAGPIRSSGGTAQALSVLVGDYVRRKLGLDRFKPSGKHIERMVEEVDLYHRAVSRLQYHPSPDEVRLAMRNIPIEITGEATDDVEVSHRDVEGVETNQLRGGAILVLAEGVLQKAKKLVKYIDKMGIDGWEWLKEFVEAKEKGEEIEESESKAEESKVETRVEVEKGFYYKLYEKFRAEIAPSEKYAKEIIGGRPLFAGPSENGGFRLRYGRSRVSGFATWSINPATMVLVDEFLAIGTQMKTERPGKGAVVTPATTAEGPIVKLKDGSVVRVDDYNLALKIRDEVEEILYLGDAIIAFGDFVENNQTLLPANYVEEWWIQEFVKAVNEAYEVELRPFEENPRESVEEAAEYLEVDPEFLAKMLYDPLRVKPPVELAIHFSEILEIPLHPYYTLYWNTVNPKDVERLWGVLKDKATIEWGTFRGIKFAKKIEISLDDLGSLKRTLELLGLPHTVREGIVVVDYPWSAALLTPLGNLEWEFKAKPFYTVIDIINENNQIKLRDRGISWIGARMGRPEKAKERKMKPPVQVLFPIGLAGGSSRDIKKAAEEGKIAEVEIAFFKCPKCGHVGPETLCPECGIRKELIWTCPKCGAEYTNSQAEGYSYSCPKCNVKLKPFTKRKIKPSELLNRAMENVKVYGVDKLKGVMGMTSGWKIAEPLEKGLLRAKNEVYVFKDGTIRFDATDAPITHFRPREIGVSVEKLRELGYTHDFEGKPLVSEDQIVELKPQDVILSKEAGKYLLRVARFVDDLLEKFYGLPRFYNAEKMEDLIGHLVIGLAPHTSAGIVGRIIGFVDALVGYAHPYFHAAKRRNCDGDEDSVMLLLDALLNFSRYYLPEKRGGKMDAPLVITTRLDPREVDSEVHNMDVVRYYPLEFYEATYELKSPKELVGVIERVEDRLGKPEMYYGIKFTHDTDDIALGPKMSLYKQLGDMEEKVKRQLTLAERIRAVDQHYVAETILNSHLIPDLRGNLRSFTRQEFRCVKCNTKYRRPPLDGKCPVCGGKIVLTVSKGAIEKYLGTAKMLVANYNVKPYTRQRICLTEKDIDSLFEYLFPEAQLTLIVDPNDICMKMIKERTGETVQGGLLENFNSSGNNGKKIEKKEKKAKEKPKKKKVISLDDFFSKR
T2 sequence (P81412 1-613 partner): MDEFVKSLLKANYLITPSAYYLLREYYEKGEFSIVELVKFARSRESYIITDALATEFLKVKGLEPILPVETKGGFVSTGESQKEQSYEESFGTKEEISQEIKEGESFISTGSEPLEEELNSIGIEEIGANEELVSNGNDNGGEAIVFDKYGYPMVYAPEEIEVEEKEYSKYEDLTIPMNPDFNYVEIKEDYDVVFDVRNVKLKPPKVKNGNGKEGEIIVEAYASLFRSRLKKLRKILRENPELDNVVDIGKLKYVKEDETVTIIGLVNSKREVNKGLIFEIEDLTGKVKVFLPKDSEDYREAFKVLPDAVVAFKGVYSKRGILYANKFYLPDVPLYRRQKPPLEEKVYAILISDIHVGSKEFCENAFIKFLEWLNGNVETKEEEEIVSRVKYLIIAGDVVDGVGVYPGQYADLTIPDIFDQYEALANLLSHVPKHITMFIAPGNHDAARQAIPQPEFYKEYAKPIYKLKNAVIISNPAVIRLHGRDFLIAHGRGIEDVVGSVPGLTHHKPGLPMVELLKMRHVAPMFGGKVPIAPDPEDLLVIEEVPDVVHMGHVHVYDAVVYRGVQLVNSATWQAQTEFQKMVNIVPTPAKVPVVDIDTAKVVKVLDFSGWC

T3: second DNA polymerase-constituting protein (translation product of ORF4)
T3 chain: T2 sequence (P81409 1-1263) with G1030R, R1034G

T4: second DNA polymerase-constituting protein (translation product of ORF4) (Pyrococcus furiosus, UniProt P81409 1-1263)
T4 construct: Subunit of the two-protein DNA polymerase from Pyrococcus furiosus DSM3638; Expressed in E. coli, either together with ORF3 from pFU1001 or alone from pFU-ORF4; About 140,000 Da on SDS-PAGE; also called ORF4 translation product; ORF4-derived translation product
T4 sequence: T2 sequence (P81409 1-1263) with G1030R, R1034G

B1: first DNA polymerase-constituting protein (translation product of ORF3) (enzyme)
chain: T2 sequence (P81412 1-613 partner)
notes: Subunit of the two-protein DNA polymerase from Pyrococcus furiosus DSM3638; Expressed in E. coli, either together with ORF4 from pFU1001 or alone from pFU-ORF3; About 90,000 Da on SDS-PAGE; also called ORF3 translation product; ORF3-derived translation product

Key:
Pfu DNA polymerase = biological target: T1, Pfu DNA polymerase; test: Inhibition by aphidicolin of Pfu DNA polymerase; type: biochemical, Pyrococcus furiousus; conditions: 1.0 mM aphidicolin
Procedure: (§1) In order to compare the modes of inhibition by inhibitors, the modes of inhibition of the DNA polymerase of the present invention and an α-type DNA polymerase derived from Pyrococcus furiousus (Pfu DNA polymerase, manufactured by Stratagene), a known DNA polymerase, were compared using a specific inhibitor of α-type DNA polymerases, aphidicolin. The activity changes were examined, while the aphidicolin concentration was increased from 0 to 2.0 mM in the presence of 20 mM Tris-HCl, pH 7.7, 15 mM MgCl2, 2 mM 2-mercaptoethanol, 0.2 mg/ml activated DNA, and 40 μM each of dATP, dGTP, dCTP and dTTP.

[1] = biological target: T2, DNA polymerase of the present invention; test: Inhibition by aphidicolin of the DNA polymerase of the present invention; type: biochemical; conditions: 2.0 mM aphidicolin
Procedure: as §1

[2] = biological target: T3, second DNA polymerase-constituting …
[3] = biological target: T4, second DNA polymerase-constituting …; test: gel filtration (Superose 6) of the co-expressed, purified polymerase; activity peaks at about 385 kDa and about 220 kDa
Procedure: Ten milliliters of an enzyme solution obtained by collecting as an active fraction was desalted and concentrated by ultrafiltration, and dissolved in buffer A+150 mM NaCl to yield 3.5 ml of an enzyme solution. The resulting enzyme solution was then applied to a Hi Trap Heparin column (manufactured by Pharmacia), previously equilibrated with the same buffer. A chromatogram was developed on a linear concentration gradient from 150 to 650 mM NaCl using an FPLC system, to yield an active fraction eluted at 400 mM NaCl. Five milliliters of this fraction was concentrated to 120 µl of a solution including 50 mM potassium phosphate, pH 6.5, 2 mM 2-mercaptoethanol, and 75 mM NaCl by repeating desalting and concentration using ultrafiltration. The resulting concentrated solution was then applied to a gel filtration column of Superose 6 (manufactured by Pharmacia), previously equilibrated with the same buffer, and eluted with the same buffer. As a result, a fraction having a DNA polymerase activity was eluted at positions corresponding to retention times of 34.7 minutes and 38.3 minutes. […] These molecular weights corresponded to a complex formed by the translation product of ORF3 and the translation product of ORF4 in a molar ratio of 1:2 and another complex formed by the above translation products in a molar ratio of 1:1, respectively. […]

Molecule	activity of the Pfu DNA polymerase relative to the original activity (Pfu DNA polymerase) [%]	inhibition of the DNA polymerase of the present invention [1]	thermostable DNA polymerase activity [2]	binding result [3]
C[C@@]1(CO)[C@H](O)CC[C@@]2(C)[C@H]1CC[C@H]1C[C@@H]3C[C@@]12CC[C@]3(O)CO [aphidicolin]	20	not inhibited at all	–	–
B1	–	–	although neither of the ORF translation products thus purified exhibited the DNA polymerase activity when assayed alone, thermostable DNA polymerase activity was exhibited when they were mixed together	binds
